For eight molecules, pest or weed control results are on record in patent US20210015098A1, “MOLECULES HAVING PESTICIDAL UTILITY, AND INTERMEDIATES, COMPOSITIONS, AND PROCESSES, RELATED THERETO” (DOW AGROSCIENCES LLC, priority 2018, published 2021).

Test [1] concerns Beet Armyworm (Spodoptera exigua, LAPHEG). Kind of test: Bioassays on Beet Armyworm (BAW), 128-well diet tray assay. The note with it: Beet Armyworm, Table ABC Biological Results, read-out: BAW (rating). The test is classed as in vivo. As to the method: (§1) Certain molecules disclosed in this document were tested against BAW and CL using procedures described in the following examples. In the reporting of the results, the “BAW & CL Rating Table” was used (See Table Section).
Bioassays on BAW were conducted using a 128-well diet tray assay. One to five second instar BAW larvae were placed in each well (3 mL) of the diet tray that had been previously filled with 1 mL of artificial diet to which 50 μg/cm^2 of the test molecule (dissolved in 50 μL of 90:10 acetone-water mixture) had been applied (to each of eight wells) and then allowed to dry. Trays were covered with a clear self-adhesive cover, vented to allow gas exchange, and held at 25° C., 14:10 light-dark for five to seven days. Percent mortality was recorded for the larvae in each well; activity in the eight wells was then averaged. The results are indicated in the table entitled “Table ABC: Biological Results” (See Table Section).

Test [2] concerns Cabbage Looper (Trichoplusia ni, TRIPNI). Kind of test: Bioassays on Cabbage Looper (CL), 128-well diet tray assay. The test is classed as in vivo. The following applies: Cabbage Looper, Table ABC Biological Results, read-out: CL (rating). Here is the method: as §1
Bioassays on CL were conducted using a 128-well diet tray assay. One to five second instar CL larvae were placed in each well (3 mL) of the diet tray that had been previously filled with 1 mL of artificial diet to which 50 μg/cm^2 of the test molecule (dissolved in 50 μL of 90:10 acetone-water mixture) had been applied (to each of eight wells) and then allowed to dry. Trays were covered with a clear self-adhesive cover, vented to allow gas exchange, and held at 25° C., 14:10 light-dark for five to seven days. Percent mortality was recorded for the larvae in each well; activity in the eight wells was then averaged. The results are indicated in the table entitled “Table ABC: Biological Results” (See Table Section).

Each structure is given as a SMILES string.

As to `O=C(C[S+]([O-])C(F)(F)F)Nc1c(F)ccc(NC(=O)c2cc(NC(=O)[C@H]3[C@H](c4ccc(F)c(Cl)c4)C3(Cl)Cl)ccc2Cl)c1F` (stereo partly drawn) [F28, 2-Chloro-5-((1R,3R)-2,2-dichloro-3-(3-chloro-4-fluorophenyl)cyclopropane-1-carboxamido)-N-(2,4-difluoro-3-(2-((trifluoromethyl)sulfinyl)acetamido)phenyl)benzamide], the pest or weed control at 50 µg/cm2 in test [1] and in test [2] was 50 to 100% each time.
For the molecule `O=C(C[S+]([O-])CC(F)(F)F)Nc1c(F)ccc(NC(=O)c2cc(NC(=O)[C@H]3[C@H](c4cc(Cl)c(Cl)c(Cl)c4)C3(Cl)Cl)ccc2Cl)c1F` (stereo partly drawn) [F29, 2-Chloro-5-((1R,3R)-2,2-dichloro-3-(3,4,5-trichlorophenyl)cyclopropane-1-carboxamido)-N-(2,4-difluoro-3-(2-((2,2,2-trifluoroethyl)sulfinyl)acetamido)phenyl)benzamide], the pest or weed control at 50 µg/cm2 in test [1] and in test [2] was 50 to 100% throughout.
As for `O=C(C[S+]([O-])CC(F)(F)F)Nc1c(F)ccc(NC(=O)c2cc(NC(=O)[C@H]3[C@H](c4ccc(Cl)c(Cl)c4)C3(Cl)Cl)ccc2Cl)c1F` (stereo partly drawn) [F30, 2-chloro-5-((R,3R)-2,2-dichloro-3-(3,4-dichlorophenyl)cyclopropane-1-carboxamido)-N-(2,4-difluoro-3-(2-((2,2,2-trifluoroethyl)sulfinyl)acetamido)phenyl)benzamide], the pest or weed control at 50 µg/cm2 in test [1] and in test [2] was 50 to 100% throughout.
`O=C(C[S+]([O-])CC(F)(F)F)Nc1c(F)ccc(NC(=O)c2cc(NC(=O)[C@H]3[C@H](c4ccc(F)c(Cl)c4)C3(Cl)Cl)ccc2Cl)c1F` (stereo partly drawn) [F31, 2-Chloro-5-((1R,3R)-2,2-dichloro-3-(3-chloro-4-fluorophenyl)cyclopropane-1-carboxamido)-N-(2,4-difluoro-3-(2-((2,2,2-trifluoroethyl)sulfinyl)acetamido)phenyl)benzamide]: the pest or weed control at 50 µg/cm2 in test [1] and in test [2] was 50 to 100% each time.
For `O=C(C[S+]([O-])C(F)(F)F)Nc1c(F)ccc(NC(=O)c2cc(NC(=O)[C@H]3[C@H](c4ccc(F)c(C(F)(F)F)c4)C3(Cl)Cl)ccc2Cl)c1F` (stereo partly drawn) [F33, 2-chloro-5-((R,3R)-2,2-dichloro-3-(4-fluoro-3-(trifluoromethyl)phenyl)cyclopropane-1-carboxamido)-N-(2,4-difluoro-3-(2-((trifluoromethyl)sulfinyl)acetamido)phenyl)benzamide], the pest or weed control at 50 µg/cm2 in test [1] and in test [2] was 50 to 100% throughout.
Consider `CC(C(=O)Nc1c(F)ccc(NC(=O)c2cc(NC(=O)[C@H]3[C@H](c4cc(Cl)c(Cl)c(Cl)c4)C3(Cl)Cl)ccc2Cl)c1F)S(=O)(=O)C(F)(F)F` (stereo partly drawn) [F35, 2-Chloro-5-((1R,3R)-2,2-dichloro-3-(3,4,5-trichlorophenyl)cyclopropane-1-carboxamido)-N-(2,4-difluoro-3-(2-((trifluoromethyl)sulfonyl)propanamido)phenyl)benzamide], for which the pest or weed control at 50 µg/cm2 in test [1] and in test [2] was 50 to 100% each time.
In the case of `O=C(CS(=O)(=O)C(F)(F)F)Nc1c(F)ccc(NC(=O)c2cc(NC(=O)[C@H]3[C@H](c4cc(Cl)c(Cl)c(Cl)c4)C3(Cl)Cl)ccc2Cl)c1F` [F36, 2-Chloro-5-((1R,3R)-2,2-dichloro-3-(3,4,5-trichlorophenyl)cyclopropane-1-carboxamido)-N-(2,4-difluoro-3-(2-((trifluoromethyl)sulfonyl)acetamido)phenyl)benzamide], the pest or weed control at 50 µg/cm2 in test [1] and in test [2] was 50 to 100% each time.
As to `CC(C(=O)Nc1c(F)ccc(NC(=O)c2cc(NC(=O)[C@H]3[C@H](c4ccc(Cl)c(Cl)c4)C3(Cl)Cl)ccc2Cl)c1F)S(=O)(=O)C(F)(F)F` (stereo partly drawn) [F37, 2-Chloro-5-((1R,3R)-2,2-dichloro-3-(3,4-dichlorophenyl)cyclopropane-1-carboxamido)-N-(2,4-difluoro-3-(2-((trifluoromethyl)sulfonyl)propanamido)phenyl)benzamide], the pest or weed control at 50 µg/cm2 in test [1] and in test [2] was 50 to 100% each time.
